System: 16 breast cancer cell lines
Test: Drug response of 16 breast cancer cell lines (GRAY dataset, PharmacoGx) compared by presence or absence of CREAM-identified COREs
Format: cell-based
Settings: >1 = higher sensitivity when CORE present
Text: For example, in methods involving assessing drug sensitivity, for each CORE, average drug sensitivity of the samples with that CORE can be divided to the average drug sensitivity of the samples without that CORE. Then the COREs can be sorted based on the obtained fold changes and COREs with top fold changes can be selected.
Therefore, in some embodiments, the top COREs can be determined as being the COREs with a minimum FDR (False Discovery Rate) after significance after multiple hypothesis correction with dindex>1 (where dindex is a measure of hazard). The FDR indicates the significance or effect of association between existence (in the case of binary features using COREs) or values of that feature and the output value (like drug sensitivity in case of biomarker discovery). The FDR is a corrected p-value for multiple hypothesis. Then the COREs that exist in less than N samples may be further filtered. The value of N may be 2 or more and depends on the particular COREs and the prognosis being predicted. For some studies described herein N was chosen to be 5. As an optional step, the remaining COREs may be combined to result in the CORE signatures that may be used for a multivariate model. In some embodiments, Fold Change may be used instead of FDR in which case for each CORE, the average drug sensitivity of the samples with that CORE can be divided by the average drug sensitivity of the samples without that CORE. Then the COREs can be sorted based on the obtained fold changes and the COREs with the top fold changes can be selected.
CREAM was tested for biomarker discovery, for drug response, using 16 breast cancer cell lines (AU565, BT549, HCC1143, HCC1395, HCC1419, HCC1806, HCC1937, HCC3153, HCC38, HCC70, MDAMB157, MDAMB361, MDAMB453, MX1, T47D, ZR751) with available ATAC-seq profiles and response to PD98059 (a non-ATP competitive MEK inhibitor), and Floxuridine (an antimetabolite agent), as part of the data available in PharmacoGx R package (version 2.0.5) developed by Haibe-Kains laboratory. There are currently no known biomarker for response to PD98059 and Floxuridine.
The columns in each Table are: 1) chromosome regions of the COREs; 2) pvalue; 3) Fold change.
Fold change tells you if presence of a CORE results in higher or lower sensitivity. If Fold Change is great than 1, it means that presence of a CORE results in higher sensitivity and Fold Change is less than 1, it means that presence of a CORE results in lower sensitivity.

SMILES: COc1cccc(-c2cc(=O)c3ccccc3o2)c1N [PD98059]
- Fold change (PD98059 sensitivity with vs without CORE chr2-75602732-75966190): 0.5231
- Fold change (PD98059 sensitivity with vs without CORE chr6-126063660-126362254): 0.4327
- Fold change (PD98059 sensitivity with vs without CORE chr7-54328557-56189467): 0.5362
- Fold change (PD98059 sensitivity with vs without CORE chr9-75681937-75835570): 0.538
- Fold change (PD98059 sensitivity with vs without CORE chr9-103348375-103365047): 0.4902
- Fold change (PD98059 sensitivity with vs without CORE chr9-130150616-131799038): 1.906
- Fold change (PD98059 sensitivity with vs without CORE chr9-139257512-140211180): 1.864
- Fold change (PD98059 sensitivity with vs without CORE chr11-694436-876984): 2.17
- Fold change (PD98059 sensitivity with vs without CORE chr11-34183346-34607941): 1.859
- Fold change (PD98059 sensitivity with vs without CORE chr15-40330702-40453457): 2.206
- Fold change (PD98059 sensitivity with vs without CORE chr16-4965308-5008584): 1.983
- Fold change (PD98059 sensitivity with vs without CORE chr16-53766187-53861966): 0.4902
- Fold change (PD98059 sensitivity with vs without CORE chr17-21102597-21252333): 0.5247
- Fold change (PD98059 sensitivity with vs without CORE chr19-45765981-46636866): 1.904
- Fold change (PD98059 sensitivity with vs without CORE chr20-9819285-10752699): 0.5253

SMILES: O=c1[nH]c(=O)n([C@H]2C[C@H](O)[C@@H](CO)O2)cc1F [Floxuridine]
- Fold change (Floxuridine sensitivity with vs without CORE chr2-36473442-37039510): 0.6674
- Fold change (Floxuridine sensitivity with vs without CORE chr3-69004922-69292456): 0.6617
- Fold change (Floxuridine sensitivity with vs without CORE chr4-99547495-99584170): 0.5406
- Fold change (Floxuridine sensitivity with vs without CORE chr5-167696005-167914094): 0.629
- Fold change (Floxuridine sensitivity with vs without CORE chr6-16577121-16782003): 0.5777
- Fold change (Floxuridine sensitivity with vs without CORE chr15-60619092-60725509): 0.7009
- Fold change (Floxuridine sensitivity with vs without CORE chr16-29801700-30154789): 1.653
- Fold change (Floxuridine sensitivity with vs without CORE chr16-67184267-67407032): 2.017
- Fold change (Floxuridine sensitivity with vs without CORE chr17-21102597-21252333): 0.699

Source: patent publication US20220284983A1, “METHODS OF IDENTIFYING CIS-REGULATORY ELEMENTS AND USES THEREOF” (UNIVERSITY HEALTH NETWORK, priority 2019, published 2022)
